pIC50: −log10 of the molar value.
How the values were obtained:
[1] = tested on: HepG2; experiment: Cytotoxicity against human HepG2 cells after 72 hrs by MTT assay; format: functional, cell-based; settings: HepG2, 72 h
[2] = target: Nicotinamide phosphoribosyltransferase (Homo sapiens, UniProt P43490); experiment: Inhibition of human Nampt using NAM as substrate after 15 mins by fluorometric method
[3] = tested on: HepG2; experiment: Induction of apoptosis in human HepG2 cells assessed as late apoptotic cells level at 5 uM after 48 hrs using annexin VFITC/propidium iodide staining by flow cytometry (reference value: 2.85%); format: functional
[4] = tested on: HepG2; experiment: Induction of apoptosis in human HepG2 cells assessed as early apoptotic cells level at 5 uM after 48 hrs using annexin VFITC/propidium iodide staining by flow cytometry (reference value: 2.84%); format: functional
[5] = Cytotoxicity against human HCT116 cells after 72 hrs by MTT assay; format: functional, cell-based; settings: HCT-116, 72 h
[6] = tested on: MDA-MB-231; experiment: Cytotoxicity against human MDA-MB-231 cells after 72 hrs by MTT assay; format: functional, cell-based; settings: MDA-MB-231, 72 h
[7] = tested on: HepG2; experiment: Induction of apoptosis in human HepG2 cells assessed as necrotic cells level at 5 uM after 48 hrs using annexin VFITC/propidium iodide staining by flow cytometry (reference value: 4.09%); format: functional

Sequence of Nicotinamide phosphoribosyltransferase (P43490 whole entry): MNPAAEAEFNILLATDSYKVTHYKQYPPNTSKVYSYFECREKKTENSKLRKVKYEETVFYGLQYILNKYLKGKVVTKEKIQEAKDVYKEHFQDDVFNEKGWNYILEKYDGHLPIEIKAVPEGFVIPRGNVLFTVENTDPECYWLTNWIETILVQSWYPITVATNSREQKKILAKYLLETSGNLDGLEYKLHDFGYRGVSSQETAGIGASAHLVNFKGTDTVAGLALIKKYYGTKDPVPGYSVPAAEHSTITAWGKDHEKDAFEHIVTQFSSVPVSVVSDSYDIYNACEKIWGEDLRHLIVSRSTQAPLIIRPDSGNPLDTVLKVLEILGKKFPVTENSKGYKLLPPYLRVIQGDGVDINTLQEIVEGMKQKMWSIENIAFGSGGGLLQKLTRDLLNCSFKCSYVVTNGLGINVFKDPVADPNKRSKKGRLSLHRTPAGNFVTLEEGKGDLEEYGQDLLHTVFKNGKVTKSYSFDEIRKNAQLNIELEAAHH

| SMILES | pIC50 [1] | pIC50 [2] | Activity [3] | Activity [4] | pIC50 [5] | pIC50 [6] | Activity [7] |
| --- | --- | --- | --- | --- | --- | --- | --- |
| Cc1ccc(C(=O)NCCCn2ccnc2)s1 | 5.41 | 6.77 | 47.51% | 1.03% | < 3.49 | < 3.49 | 6.62% |
| O=C(NCCCn1ccnc1)c1ccc([N+](=O)[O-])s1 | 4.22 | < 5.00 |  |  | < 3.41 | < 3.41 |  |
| COc1ccc(CCNC(=O)c2cc3ccccc3o2)cc1OC | 3.86 | 5.85 |  |  | 3.80 | < 3.43 |  |
| COc1ccc(CCNC(=O)CNC(=O)c2ccc(C)s2)cc1OC | < 3.40 | 6.02 |  |  | < 3.40 | < 3.40 |  |
| O=C(/C=C/c1cccnc1)NCCCn1ccnc1 | < 3.56 | < 5.00 |  |  | < 3.56 | < 3.56 |  |
| COc1ccc(CCNC(=O)CNC(=O)c2sccc2C)cc1OC | 4.33 | < 5.00 |  |  | 3.71 | < 3.48 |  |
| COc1ccc(CCNC(=O)c2sccc2C)cc1OC | 4.00 | 5.28 |  |  | 3.77 | 3.72 |  |
| COc1ccc(CCNC(=O)/C=C/c2cccnc2)cc1OC | < 3.40 | < 5.00 |  |  | < 3.40 | < 3.40 |  |
| O=C(NCCCn1ccnc1)c1cc2ccccc2o1 | 4.96 | 6.00 |  |  | 4.21 | 5.00 |  |
| COc1ccc(CCNC(=O)c2ccc([N+](=O)[O-])s2)cc1OC | 4.10 | < 5.00 |  |  | 4.07 | < 3.48 |  |
| O=C(NCCCn1ccnc1)c1cc2ccccc2s1 | 5.28 | 5.96 | 24.42% | 1.88% | 4.60 | 4.44 | 6.75% |
| COc1ccc(CCNC(=O)c2cc3ccccc3s2)cc1OC | 4.09 |  |  |  | 3.55 | < 3.53 |  |
| Cc1ccsc1C(=O)NCCCn1ccnc1 | 3.99 | < 5.00 |  |  | 3.70 | < 3.56 |  |
| COc1ccc(CCNC(=O)c2ccc(C)s2)cc1OC | < 3.51 | 6.07 |  |  | < 3.51 | < 3.51 |  |

Source: ChEMBL document CHEMBL3751770, “Identification of benzothiophene amides as potent inhibitors of human nicotinamide phosphoribosyltransferase” (Bioorg Med Chem Lett, 2016)
